Experimental data from ChEMBL document CHEMBL1201862, “PubChem BioAssay data set” (2004).
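Compound exposure: 48 hours, 5 concentrations, 96-well plates. Abbreviation: GI50, concentration required for 50% inhibition of growth.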 Calls of active or inactive are those of the source. Rule as the data show it: active = GI50 up to about 1.1 µM and inactive = higher.

Columns and labels:
Experiment in all cases: growth of human tumour cells (NCI), 48 h
A498 = system: A498
ACHN = system: ACHN
EKVX = system: EKVX
HOP-62 = system: HOP-62
HOP-92 = system: HOP-92
Hs-578T = system: Hs-578T
LOX IMVI = system: LOX IMVI
MDA-MB-231 = system: MDA-MB-231
Malme-3M = system: Malme-3M
NCI/ADR-RES = system: NCI/ADR-RES
OVCAR-8 = system: OVCAR-8
RPMI-8226 = system: RPMI-8226
RXF 393 = system: RXF 393
SF-268 = system: SF-268
SK-MEL-28 = system: SK-MEL-28
SK-MEL-5 = system: SK-MEL-5
SN12C = system: SN12C
SW-620 = system: SW-620
U-251 = system: U-251
HL-60 = system: HL-60

Row | Compound | GI50 (A498) | GI50 (ACHN) | GI50 (EKVX) | GI50 (HOP-62) | GI50 (HOP-92) | GI50 (Hs-578T) | GI50 (LOX IMVI) | GI50 (MDA-MB-231) | GI50 (Malme-3M) | GI50 (NCI/ADR-RES) | GI50 (OVCAR-8) | GI50 (RPMI-8226) | GI50 (RXF 393) | GI50 (SF-268) | GI50 (SK-MEL-28) | GI50 (SK-MEL-5) | GI50 (SN12C) | GI50 (SW-620) | GI50 (U-251) | GI50 (HL-60)
1 | Cc1ccc(/C(C#N)=C/c2cccc([N+](=O)[O-])c2)cc1 | 59.4 µM (inactive) | > 100 µM (inactive) | 29.5 µM (inactive) | 38.1 µM (inactive) | 32.2 µM (inactive) | 27.4 µM (inactive) | > 100 µM (inactive) | 19.2 µM (inactive) | > 100 µM (inactive) | > 100 µM (inactive) | 59.2 µM (inactive) | > 100 µM (inactive) | 19.3 µM (inactive) | 37.2 µM (inactive) | > 100 µM (inactive) | > 100 µM (inactive) | > 100 µM (inactive) | > 100 µM (inactive) | 46.7 µM (inactive) | –
2 | COc1cc(C(=O)O)c([N+](=O)[O-])c(OC)c1OC | > 100 µM (inactive) | > 100 µM (inactive) | > 100 µM (inactive) | > 100 µM (inactive) | > 100 µM (inactive) | > 100 µM (inactive) | > 100 µM (inactive) | > 100 µM (inactive) | > 100 µM (inactive) | > 100 µM (inactive) | > 100 µM (inactive) | > 100 µM (inactive) | > 100 µM (inactive) | > 100 µM (inactive) | > 100 µM (inactive) | > 100 µM (inactive) | > 100 µM (inactive) | > 100 µM (inactive) | > 100 µM (inactive) | –
3 | OCCCCn1cc(Cn2ncc3c(O)ncnc32)nn1 | > 100 µM (inactive) | > 100 µM (inactive) | > 100 µM (inactive) | > 100 µM (inactive) | > 100 µM (inactive) | > 100 µM (inactive) | > 100 µM (inactive) | > 100 µM (inactive) | > 100 µM (inactive) | > 100 µM (inactive) | > 100 µM (inactive) | > 100 µM (inactive) | > 100 µM (inactive) | > 100 µM (inactive) | > 100 µM (inactive) | > 100 µM (inactive) | > 100 µM (inactive) | > 100 µM (inactive) | > 100 µM (inactive) | –
4 | COCc1nc(N)nc(N2N=C(C)CC2(C)C)n1 | > 100 µM (inactive) | > 100 µM (inactive) | > 100 µM (inactive) | > 100 µM (inactive) | > 100 µM (inactive) | > 100 µM (inactive) | > 100 µM (inactive) | > 100 µM (inactive) | – | > 100 µM (inactive) | > 100 µM (inactive) | > 100 µM (inactive) | > 100 µM (inactive) | > 100 µM (inactive) | > 100 µM (inactive) | > 100 µM (inactive) | > 100 µM (inactive) | > 100 µM (inactive) | > 100 µM (inactive) | > 100 µM (inactive)
5 | CCCCSc1n/c(=C\c2ccc(N(C)C)cc2)c2nnnn12 | > 100 µM (inactive) | > 100 µM (inactive) | > 100 µM (inactive) | > 100 µM (inactive) | > 100 µM (inactive) | > 100 µM (inactive) | > 100 µM (inactive) | > 100 µM (inactive) | > 100 µM (inactive) | > 100 µM (inactive) | > 100 µM (inactive) | > 100 µM (inactive) | > 100 µM (inactive) | > 100 µM (inactive) | > 100 µM (inactive) | – | > 100 µM (inactive) | > 100 µM (inactive) | > 100 µM (inactive) | > 100 µM (inactive)
6 | CC1=NN(c2nc(N)nc(-c3cc4ccccc4oc3=N)n2)C(C)(C)C1 | 27.7 µM (inactive) | 19 µM (inactive) | 14.7 µM (inactive) | 21.4 µM (inactive) | 22.9 µM (inactive) | 20.5 µM (inactive) | – | 20.1 µM (inactive) | 17.5 µM (inactive) | 22 µM (inactive) | 26.1 µM (inactive) | 19.6 µM (inactive) | 20.7 µM (inactive) | 19.1 µM (inactive) | 16.5 µM (inactive) | 16.8 µM (inactive) | 19.5 µM (inactive) | – | 27 µM (inactive) | 18.2 µM (inactive)
7 | CC(C)(C)NCC(O)c1ccc(O)c(CO)n1 (stereo not drawn) | > 100 µM (inactive) | > 100 µM (inactive) | > 100 µM (inactive) | > 100 µM (inactive) | > 100 µM (inactive) | > 100 µM (inactive) | > 100 µM (inactive) | > 100 µM (inactive) | – | > 100 µM (inactive) | > 100 µM (inactive) | > 100 µM (inactive) | > 100 µM (inactive) | > 100 µM (inactive) | > 100 µM (inactive) | > 100 µM (inactive) | > 100 µM (inactive) | > 100 µM (inactive) | > 100 µM (inactive) | > 100 µM (inactive)
8 | C=C(C)[C@@]1(O)CCCC[C@@H]1CC(Sc1ccccc1)Sc1ccccc1 | 29.9 µM (inactive) | 37.6 µM (inactive) | 13.4 µM (inactive) | 16.5 µM (inactive) | 4.3 µM (inactive) | 15.7 µM (inactive) | 14.6 µM (inactive) | 17.1 µM (inactive) | 12.6 µM (inactive) | 16.3 µM (inactive) | 19.5 µM (inactive) | 11.3 µM (inactive) | 13.4 µM (inactive) | 15.7 µM (inactive) | 18.1 µM (inactive) | 15.7 µM (inactive) | 16.4 µM (inactive) | – | 21.1 µM (inactive) | 15.2 µM (inactive)
9 | COC1(OC)C2(Cl)CCC1(Cl)C(OC(C)=O)C2 (stereo not drawn) | > 100 µM (inactive) | > 100 µM (inactive) | > 100 µM (inactive) | > 100 µM (inactive) | > 100 µM (inactive) | > 100 µM (inactive) | > 100 µM (inactive) | > 100 µM (inactive) | > 100 µM (inactive) | > 100 µM (inactive) | > 100 µM (inactive) | > 100 µM (inactive) | > 100 µM (inactive) | > 100 µM (inactive) | > 100 µM (inactive) | > 100 µM (inactive) | > 100 µM (inactive) | > 100 µM (inactive) | > 100 µM (inactive) | –
10 | Cc1cn(C2CC(N/C(=N/C#N)NCC3OC(n4cnc5c(N)ncnc54)CC3O)C(CO)O2)c(=O)[nH]c1=O (stereo not drawn) | > 100 µM (inactive) | > 100 µM (inactive) | > 100 µM (inactive) | > 100 µM (inactive) | > 100 µM (inactive) | > 100 µM (inactive) | > 100 µM (inactive) | > 100 µM (inactive) | > 100 µM (inactive) | > 100 µM (inactive) | > 100 µM (inactive) | – | > 100 µM (inactive) | > 100 µM (inactive) | > 100 µM (inactive) | > 100 µM (inactive) | > 100 µM (inactive) | > 100 µM (inactive) | > 100 µM (inactive) | 77.6 µM (inactive)
11 | Cc1cc(O)cc(O)c1C(=O)O[C@]1(C)C(=O)C=C2C=C(/C=C/C(=O)O)OC=C2C1=O | > 100 µM (inactive) | > 100 µM (inactive) | > 100 µM (inactive) | > 100 µM (inactive) | 31.8 µM (inactive) | > 100 µM (inactive) | 37.2 µM (inactive) | > 100 µM (inactive) | 67.3 µM (inactive) | > 100 µM (inactive) | > 100 µM (inactive) | > 100 µM (inactive) | > 100 µM (inactive) | > 100 µM (inactive) | > 100 µM (inactive) | > 100 µM (inactive) | > 100 µM (inactive) | 58.3 µM (inactive) | – | 31.9 µM (inactive)
12 | O=C(/C=C\c1ccccc1)N1CCc2ccccc2C1 | 53.2 µM (inactive) | 38.2 µM (inactive) | 32.4 µM (inactive) | > 100 µM (inactive) | 42.6 µM (inactive) | 60.7 µM (inactive) | 79.1 µM (inactive) | > 100 µM (inactive) | – | 44 µM (inactive) | 51.9 µM (inactive) | 23.5 µM (inactive) | 44.4 µM (inactive) | 49.7 µM (inactive) | 61 µM (inactive) | 17.1 µM (inactive) | – | 63.5 µM (inactive) | 80.7 µM (inactive) | 29.8 µM (inactive)
13 | O=c1c2ccc(Cl)cc2oc2c(CSc3ccccc3)cccc12 | 25.7 µM (inactive) | > 39.2 µM (inactive) | > 50.4 µM (inactive) | > 55 µM (inactive) | > 39.4 µM (inactive) | > 100 µM (inactive) | 9.57 µM (inactive) | > 63 µM (inactive) | 14.2 µM (inactive) | > 50.2 µM (inactive) | 62.7 µM (inactive) | 13.2 µM (inactive) | > 100 µM (inactive) | > 100 µM (inactive) | > 53.1 µM (inactive) | > 46.6 µM (inactive) | 43.6 µM (inactive) | 21.5 µM (inactive) | 39.9 µM (inactive) | –
14 | O=CN1CCN(C(=O)c2ccc(Cl)cc2Cl)C1=S | 42 µM (inactive) | > 100 µM (inactive) | > 100 µM (inactive) | > 100 µM (inactive) | 34.2 µM (inactive) | 32.4 µM (inactive) | 32.3 µM (inactive) | > 100 µM (inactive) | > 100 µM (inactive) | > 100 µM (inactive) | > 100 µM (inactive) | 20.5 µM (inactive) | 29.3 µM (inactive) | 26.1 µM (inactive) | > 100 µM (inactive) | – | 43 µM (inactive) | 77.8 µM (inactive) | > 100 µM (inactive) | 20.4 µM (inactive)
15 | C=C1C(=O)C23C(O)CC4C(C)(C)CCC(O)C4(C)C2CC(OC(C)=O)C1[C@H]3O (stereo partly drawn) | 15.8 µM (inactive) | 4.12 µM (inactive) | 4.88 µM (inactive) | 14.7 µM (inactive) | 2.26 µM (inactive) | 24 µM (inactive) | 0.188 µM (active) | 3.27 µM (inactive) | 3.37 µM (inactive) | 15.3 µM (inactive) | 1.22 µM (inactive) | 0.869 µM (active) | 2.62 µM (inactive) | 4.49 µM (inactive) | 3.39 µM (inactive) | – | 3.15 µM (inactive) | 1.01 µM (active) | 8.81 µM (inactive) | 1.26 µM (inactive)
